# Source: the supplement of paper PMC7840683
# ± gives the standard deviation of the averaged measurements.
# Tested on: HepaRG
# Assay: LDH release cytotoxicity, % of total lysis control; higher = more cytotoxic
# Settings: 48 h
# In short: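 HepaRG cells from a single lot were plated on collagen I-coated 96-well plates and treated in duplicate for 48 h with eight-point half-log series of test chemicals, starting at 100 µM, in serum-free induction medium containing 0.5% DMSO. Total lysis wells were given 0.1% Triton X. LDH released into 50 µL of spent medium was measured as resorufin fluorescence with CytoTox-ONE on a Tecan Safire. Percent cytotoxicity was normalized to on-plate vehicle and total lysis controls and then averaged across duplicates.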
SMILES,LDH release cytotoxicity (0.1 µM) [%],LDH release cytotoxicity (1 µM) [%],LDH release cytotoxicity (3.16228 µM) [%],LDH release cytotoxicity (10 µM) [%],LDH release cytotoxicity (31.6228 µM) [%],LDH release cytotoxicity (100 µM) [%],LDH release cytotoxicity (0.03162 µM) [%],LDH release cytotoxicity (0.3162278 µM) [%],further results
CCCCC(C#N)(Cn1cncn1)c1ccc(Cl)cc1 (stereo not given) [Myclobutanil],0.0936 ± 0.35,-0.556 ± 0.71,-7.8 ± 0.19,8.33 ± 0.4,0.7089 ± 0.0019,7.68 ± 2.1,–,–,LDH release cytotoxicity (0.031623 µM): 0.809 ± 1.1%; LDH release cytotoxicity (0.316228 µM): -0.274 ± 0.61%
CCC1CC(N(Cc2cc(C(F)(F)F)cc(C(F)(F)F)c2)C(C)=O)c2cc(C(F)(F)F)ccc2N1C(=O)OC(C)C (stereo not given),0.141 ± 0.44,-0.248 ± 0.3,-1.3 ± 0.09,0.748 ± 0.45,3.11 ± 0.63,7.54 ± 0.85,-0.374 ± 0.25,-0.658 ± 0.2,–
O=C(O)c1cccnc1 [Nicotinic acid],–,–,–,–,–,–,–,–,LDH release cytotoxicity (0.0327296 µM): -1.39 ± 0.94%; LDH release cytotoxicity (0.1035 µM): -1.35 ± 0.33%; LDH release cytotoxicity (0.327296 µM): -1.95 ± 0.85%; LDH release cytotoxicity (1.035 µM): -1.67 ± 0.46%; LDH release cytotoxicity (3.27296 µM): -1.83 ± 0.44%; LDH release cytotoxicity (10.35 µM): -0.596 ± 0.74%; LDH release cytotoxicity (32.729574 µM): -0.819 ± 0.39%; LDH release cytotoxicity (103.5 µM): 0.214 ± 0.71%
CCSC(=O)N(CC(C)C)CC(C)C [Butylate],-1.51 ± 1.6,-1.26 ± 0.046,-0.761 ± 0.45,-0.00901 ± 0.45,-0.0439 ± 1.2,-0.00901 ± 0.1,-1.39 ± 0.082,-0.761 ± 0.31,–
Clc1nc(Cl)nc(Nc2ccccc2Cl)n1 [Anilazine],0.704 ± 0.18,0.786 ± 0.59,0.633 ± 0.28,0.855 ± 0.55,0.799 ± 0.19,0.712 ± 0.08,0.501 ± 1.1,0.988 ± 0.25,–
NC(=O)N1c2ccccc2C=Cc2ccccc21 [Carbamazepine],-0.993 ± 0.65,-0.89 ± 0.085,-0.514 ± 0.98,-1.28 ± 0.24,-1.043 ± 0.0064,0.39 ± 0.34,-0.712 ± 0.62,-1.39 ± 0.76,–
CCCCCCCC(=O)OC [Methyl octanoate],-0.372 ± 0.27,-1.52 ± 0.096,-0.786 ± 0.032,-1.1 ± 0.2,-1.29 ± 0.035,0.214 ± 0.17,-0.862 ± 0.64,-1.13 ± 0.41,–
Nc1nc(N)c2nc(CNc3ccc(C(=O)NC(CCC(=O)O)C(=O)O)cc3)cnc2n1 (stereo not given) [Aminopterin],-7.61 ± 0.6,-7.83 ± 0.65,-7.31 ± 0.2,-9.44 ± 0.67,-9.84 ± 0.9,-9.19 ± 0.42,-11.8 ± 0.096,-7.45 ± 1.3,–
CCCCCCCCCCCCCO [1-Tridecanol],-0.843 ± 0.39,-0.914 ± 0.16,-0.263 ± 1,0.564 ± 1.8,0.347 ± 1.4,3.78 ± 2.1,-1.51 ± 0.42,-0.758 ± 0.15,–
O=c1n(Cl)c(=O)n(Cl)c(=O)n1Cl [Symclosene],-0.82 ± 0.92,-0.453 ± 0.22,0.284 ± 0.16,1.48 ± 1.4,0.324 ± 1.8,2.44 ± 2,-1.22 ± 0.62,-0.254 ± 0.19,–
CCC(C)(C)C1CCC(O)CC1 (stereo not given) [4-(2-Methylbutan-2-yl)cyclohexanol],-1.92 ± 0.13,-1.82 ± 0.12,-2.17 ± 0.41,-1.05 ± 0.12,-1.3 ± 0.32,0.0243 ± 0.8,-0.419 ± 1.4,-1.25 ± 0.17,–
COCC(C)O (stereo not given) [1-Methoxy-2-propanol],-1.18 ± 1.1,-1.81 ± 0.6,-1.09 ± 0.06,-0.197 ± 0.52,-0.477 ± 0.073,0.469 ± 0.036,-0.68 ± 0.076,-1.53 ± 0.67,–
CCOP(=S)(OCC)SCn1c(=O)oc2cc(Cl)ccc21 [Phosalone],-3.01 ± 0.25,-2.28 ± 0.84,-2.21 ± 0.19,-2.4 ± 0.9,-1.63 ± 1.2,-1.09 ± 0.67,-2.44 ± 0.92,-2.19 ± 0.66,–
CCC(C)c1ccc(O)cc1 (stereo not given) [4-(Butan-2-yl)phenol],-2.9 ± 0.076,-3.15 ± 0.78,-2.86 ± 0.48,-2.62 ± 0.47,-1.77 ± 0.96,-0.982 ± 0.8,-1.68 ± 0.31,-2.9 ± 0.23,–
C=CN1CCCC1=O [N-Vinyl-2-pyrrolidone],–,–,–,–,–,–,–,–,LDH release cytotoxicity (0.01581 µM): -1.31 ± 0.34%; LDH release cytotoxicity (0.05 µM): -2.25 ± 0.44%; LDH release cytotoxicity (0.1581139 µM): -2.68 ± 0.3%; LDH release cytotoxicity (0.5 µM): -2.71 ± 0.27%; LDH release cytotoxicity (1.5811388 µM): -2.96 ± 0.54%; LDH release cytotoxicity (5 µM): -2.54 ± 0.67%; LDH release cytotoxicity (15.8114 µM): -1.96 ± 0.93%; LDH release cytotoxicity (50 µM): -0.521 ± 0.9%
C#CC1(O)CCC2C3CCC4=CC(=O)CCC4C3CCC21CC (stereo not given) [Levonorgestrel],-1.25 ± 1.1,-1.92 ± 0.3,-1.95 ± 0.12,-1.02 ± 0.035,-0.294 ± 1.1,0.81 ± 0.17,-1.38 ± 1.4,-1.67 ± 1.2,–
CC(=O)CC(c1ccccc1)C1C(=O)Oc2ccccc2C1=O (stereo not given) [Warfarin],-1.26 ± 0.31,-0.262 ± 1.4,-0.866 ± 0.073,-0.731 ± 0.26,0.385 ± 0.24,2.56 ± 0.55,-1.66 ± 0.38,-0.808 ± 0.67,–
"Cc1cccc(C)c1O [2,6-Dimethylphenol]",-0.897 ± 0.56,-1.91 ± 0.97,-1.66 ± 0.091,-1.73 ± 0.19,-0.524 ± 1.1,0.122 ± 0.94,-1.24 ± 1.2,-1.931 ± 0.0097,–
CN(C)c1nc(=O)n(C2CCCCC2)c(=O)n1C [Hexazinone],-1.77 ± 0.46,-2.14 ± 0.28,-0.406 ± 1.8,-0.642 ± 0.23,-1.37 ± 0.81,0.813 ± 0.03,-1.77 ± 0.1,0.416 ± 1.9,–
CC(C)COC(=O)CCCCC(=O)OCC(C)C [Diisobutyl adipate],-2.01 ± 0.88,-2.26 ± 0.4,-2.38 ± 0.66,-0.129 ± 0.52,7.28 ± 1,46.4 ± 4.1,-1.813 ± 0.015,-0.902 ± 0.055,–
